Consider two molecules from ChEMBL document CHEMBL5465560, “Selectivity Literature for EUbOPEN Chemogenomic Library” (2024).

Each structure is given as a SMILES string. Substitutions are numbered along the chain they refer to.

The test system of test [1] is T1, Receptor-type tyrosine-protein kinase FLT3 (Homo sapiens), P36888 [R834Q].
T1 sequence (whole entry): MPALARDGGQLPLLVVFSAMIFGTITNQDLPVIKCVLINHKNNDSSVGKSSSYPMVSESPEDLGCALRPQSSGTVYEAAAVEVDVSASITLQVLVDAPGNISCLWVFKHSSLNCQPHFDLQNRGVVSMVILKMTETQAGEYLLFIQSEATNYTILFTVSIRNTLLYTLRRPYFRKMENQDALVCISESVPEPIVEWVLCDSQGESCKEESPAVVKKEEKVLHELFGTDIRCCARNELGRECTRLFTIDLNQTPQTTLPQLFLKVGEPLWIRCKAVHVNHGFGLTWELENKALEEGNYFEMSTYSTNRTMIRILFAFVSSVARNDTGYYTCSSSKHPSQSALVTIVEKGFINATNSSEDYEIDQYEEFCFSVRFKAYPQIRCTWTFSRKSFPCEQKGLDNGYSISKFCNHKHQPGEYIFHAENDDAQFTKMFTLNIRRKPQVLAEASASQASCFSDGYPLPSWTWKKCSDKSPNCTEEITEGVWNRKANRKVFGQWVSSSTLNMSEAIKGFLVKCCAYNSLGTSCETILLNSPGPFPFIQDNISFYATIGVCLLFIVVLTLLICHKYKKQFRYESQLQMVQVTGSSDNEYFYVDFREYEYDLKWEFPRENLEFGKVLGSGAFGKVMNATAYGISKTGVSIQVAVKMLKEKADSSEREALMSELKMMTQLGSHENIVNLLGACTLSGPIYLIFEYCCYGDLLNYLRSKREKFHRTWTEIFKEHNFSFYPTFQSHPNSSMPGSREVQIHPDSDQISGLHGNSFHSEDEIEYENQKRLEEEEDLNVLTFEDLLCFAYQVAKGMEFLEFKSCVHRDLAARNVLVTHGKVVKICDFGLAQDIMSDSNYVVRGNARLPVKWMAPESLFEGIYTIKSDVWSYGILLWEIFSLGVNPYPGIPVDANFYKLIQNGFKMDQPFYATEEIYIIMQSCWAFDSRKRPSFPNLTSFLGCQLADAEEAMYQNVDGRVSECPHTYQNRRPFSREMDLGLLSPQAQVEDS
The test is described as follows: (§1) Selectivity interaction (KinomeScan (DiscoverX)) EUB0000666a FLT3. The settings on record: at 10 µM.

The subject of test [2] is Receptor-type tyrosine-protein kinase FLT3 (Homo sapiens), P36888 [UNDEFINED MUTATION]. The test is described as §1. The conditions noted are these: at 10 µM.
Test [3] relates to T2, Receptor-type tyrosine-protein kinase FLT3 (Homo sapiens), P36888 [N841I].
T2 sequence (whole entry): T1 sequence (whole entry) with Q834R, N841I
The test is described as §1. The conditions noted are these: at 10 µM.

In test [4] the test system is T3, Receptor-type tyrosine-protein kinase FLT3 (Homo sapiens), P36888 [D835H].
T3 sequence (whole entry): T1 sequence (whole entry) with Q834R, D835H
Described as §1. The settings on record: at 10 µM.

Test [5] has as its target Casein kinase II subunit alpha' (Homo sapiens) (UniProt P19784). The test is described as follows: Selectivity interaction (Kinase panel (DSF assay)) EUB0001559a CSNK2A2.

Sequence of Casein kinase II subunit alpha' (Homo sapiens) (P19784 whole entry, looked up): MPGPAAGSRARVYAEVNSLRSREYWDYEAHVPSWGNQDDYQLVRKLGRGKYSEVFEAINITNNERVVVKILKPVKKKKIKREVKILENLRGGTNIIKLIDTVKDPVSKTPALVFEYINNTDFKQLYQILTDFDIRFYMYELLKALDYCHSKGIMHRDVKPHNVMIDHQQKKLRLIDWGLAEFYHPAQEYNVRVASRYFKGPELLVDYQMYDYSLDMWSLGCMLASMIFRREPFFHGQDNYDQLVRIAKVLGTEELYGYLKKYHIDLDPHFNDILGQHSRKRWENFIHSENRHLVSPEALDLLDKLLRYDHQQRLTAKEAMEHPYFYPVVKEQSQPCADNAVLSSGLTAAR

With `O=C(NOC[C@H](O)CO)c1ccc(F)c(F)c1Nc1ccc(I)cc1F`, the % of control in test [1] was found to be 78%; in test [2], 100%; in test [3], 78%; in test [4] it was 87%.

Molecule `CN(C(=O)c1cnn2cccnc12)c1cc2c(cc1N1CCOCC1)C(=O)N(C[C@@H](F)C(C)(C)O)C2` showed a dTM in test [5] of 1.4 K.
